# Reference: patent US9783547B2, “Water soluble 4-azapodophyllotoxin analogs” (CENTRE NATIONAL DE LA RECHERCHE SCIENTIFIQUE (CNRS), priority 2014, dated 2017)
# Like-named read-outs stand apart in the source and are kept apart here.
# Legend:
# Type in all cases: cell-based
# human cancer cell lines = experiment: Cytotoxicity on the whole panel of human cancer cell lines (MTS); conditions: all human cancer cell lines of Table 2; read-out: IC50 values, range over all cell lines
# OVCAR8 = experiment: Cytotoxicity assay for human cancer cells (MTS); conditions: OVCAR-8, OVCAR8 ovarian adenocarcinoma, 72 h, read-out: IC 50 value
# Procedure: (§1) Human cells were grown in DMEM medium supplemented with 10% fetal calf serum (Invitrogen), in the presence of penicillin, streptomycin and amphotericin B (Fungizone) in 75 cm^2 flask under 5% CO2. Cells were plated in 96-well tissue culture microplates at a density of 650 cells/well in 200 μl medium and treated 24 h later with the compound dissolved in DMSO at concentrations ranging from 0.5-10 μM applied using an automated benchstation (Beckman Biomek 3000). Controls received the same volume of DMSO as the test wells (1% final concentration). After a 72 h exposure time, MTS reagent (Promega) was added and incubated for 3 h at 37° C. and the absorbance was read at 490 nm. Results are expressed as the inhibition of cell proliferation calculated as the ratio [(OD490 treated/OD490 control)×100].
# U937 = experiment: Cytotoxicity assay for human cancer cells (MTS); conditions: U-937, U937 histiocytic lymphoma, 72 h, read-out: IC 50 value
# Procedure: as §1
# MDA231 = experiment: Cytotoxicity assay for human cancer cells (MTS); conditions: MDA-MB-231, MDA231 breast ER− (hormone independent), 72 h, read-out: IC 50 value
# Procedure: as §1
# A2780cis = experiment: Cytotoxicity assay for human cancer cells (MTS); conditions: A2780cis ovarian carcinoma-cisplatin resistant, 72 h, read-out: IC 50 value
# Procedure: as §1
# PC3 = experiment: Cytotoxicity assay for human cancer cells (MTS)
# Procedure: as §1
# HepG2 = experiment: Cytotoxicity assay for human cancer cells (MTS); conditions: HepG2 hepatocellular carcinoma, 72 h, read-out: IC 50 value
# Procedure: as §1
# HCT15 = experiment: Cytotoxicity assay for human cancer cells (MTS); conditions: HCT-15, HCT15 colon adenocarcinoma, 72 h, read-out: IC 50 value
# Procedure: as §1
# HL60 = experiment: Cytotoxicity assay for human cancer cells (MTS); conditions: HL-60, HL60 acute promyelocytic leukemia, 72 h, read-out: IC 50 value
# Procedure: as §1
# A2780 = experiment: Cytotoxicity assay for human cancer cells (MTS); conditions: A2780 ovarian carcinoma, 72 h, read-out: IC 50 value
# Procedure: as §1
# MDA435 = experiment: Cytotoxicity assay for human cancer cells (MTS); conditions: MDA435 breast ER− (highly metastatic to lungs), 72 h, read-out: IC 50 value
# Procedure: as §1
# HCT116 = experiment: Cytotoxicity assay for human cancer cells (MTS); conditions: HCT-116, HCT116 colorectal carcinoma, 72 h, read-out: IC 50 value
# Procedure: as §1
# HL60R = experiment: Cytotoxicity assay for human cancer cells (MTS); conditions: HL60R acute promyelocytic leukemia-multidrug resistant, 72 h, read-out: IC 50 value
# Procedure: as §1
# U87 = experiment: Cytotoxicity assay for human cancer cells (MTS); conditions: U-87 MG, U87 brain glioblastoma, astrocytoma, 72 h, read-out: IC 50 value
# Procedure: as §1
# EPC = experiment: Cytotoxicity assay for human cancer cells (MTS)
# Procedure: as §1
# SK-OV3 = experiment: Cytotoxicity assay for human cancer cells (MTS); conditions: SK-OV-3, SK-OV3 ovarian adenocarcinoma, 72 h, read-out: IC 50 value
# Procedure: as §1
structure (smiles),measurement,setting,value
"COc1cc(Nc2c3c(nc4cc5c(cc24)OCO5)CCCC3=O)cc(OC)c1OC.Cl [SGR307.HCl, 6,7-(Methylenedioxy)-9-(3,4,5-trimethoxyphenylamino)-3,4-dihydroacridin-1(2H)-one, hydrochloride]",IC50,human cancer cell lines,30 to 380 nM
same,IC50,OVCAR8,138 nM
same,IC50,U937,121 nM
same,IC50,MDA231,79 nM
same,IC50,A2780cis,109 nM
same,IC50,"PC3; PC-3, PC3 androgen-independent prostate adenocarcinoma, value of running text, read-out: IC50",120 to 130 nM
same,IC50,"PC3; PC-3, PC3 prostate adenocarcinoma (androgen independent), 72 h, MTS, read-out: IC 50 value",98 nM
same,IC50,HepG2,139 nM
same,IC50,HCT15,91 nM
same,IC50,HL60,90 nM
same,IC50,A2780,99 nM
same,IC50,MDA435,124 nM
same,IC50,HCT116,68 nM
same,IC50,HL60R,164 nM
same,IC50,U87,126 nM
same,IC50,"EPC; Homo sapiens, 72 h, EPC epithelioma (quiescent cell line), 72 h, MTS, read-out: IC 50 value",237 nM
same,IC50,"EPC; Homo sapiens, quiescent cell line EPC, values of running text, read-out: IC50 values",310 nM
same,IC50,"EPC; quiescent cell line EPC, values of running text, hydrochloride, read-out: IC50 values",360 nM
same,IC50,SK-OV3,112 nM
